From patent US9585975B2, “MRI contrast agents” (NORTHWESTERN UNIVERSITY, priority 2012, dated 2017)
Several values for one entry are separate records, joined by “and”; a condition that tells them apart may be missing. Equal values may be shown once. Read-outs that look alike come from different tables or passages of the source.

Experiments:
[1] = Relaxivity determination of free (unbound) contrast agents; type: physicochemical; conditions: 37° C.
Method: The relaxation rates and Gd(III) concentrations were determined for contrast agent solutions in a range of concentrations. The relaxation rates of small molecule contrast agents were investigated using a 4 mM starting solution in water and diluted 1:1 four times. […] Relaxation rates were determined using a 60 MHz (1.5 T) NMR analyzer (Bruker Minispec MQ60) at 37° C. using 500 μL in a 7.5 mm inner diameter NMR tubes. T1 relaxation times were determined using monoexponential curve fitting and an inversion recovery pulse sequence with four averages for each of 10 data points.

HaloTag protein = conditions: 37° C.
Method: The HaloTag protein was expressed recombinantly after subcloning the target protein into the vector pMCSG7 to include an N-terminal His6-Tag followed by a TEV protease cleavage site. The protein was expressed in BL21(DE3) cells and purified by Nickel affinity chromatography. […] The HaloTag protein was labeled with a 5-fold molar excess of the Gd(III) complex at 4 degrees C. overnight. […] The labeled proteins were concentrated to a starting concentration of ˜600 μM for all relaxivity analyses.
Longitudinal relaxivities of the unbound agents were determined in water and the protein-bound contrast agents in 10 mM MOPS at 1.5 T, 37_C (Table 1).
To prepare the protein-bound contrast agent 12.5 mg protein was incubated overnight at 4° C. with five equivalents haloalkane label. Excess label was removed by size-exclusion chromatography (Econo-Pac 10 DG Disposable Chromatography Columns) and dialysis overnight into 10 mM MOPS, pH 7.4 (Spectrum Spectra/Por 4 Dialysis Membrane Tubing 12-14K MWCO) at 4° C. The protein-bound contrast agent was concentrated to a starting concentration of ˜600 μM for all relaxivity assays (Amicon Ultra-4, PLGC Ultracel-PL Membrane, 10 kDa). Agent binding was detected by mass spectrometry (Agilent 6510 Accurate-Mass Q-TOF LC/MS) and data deconvolution was performed with the included software (Agilent MassHunter Qualitative Analysis).
The relaxation rates and Gd(III) concentrations were determined for contrast agent solutions in a range of concentrations. The relaxation rates of small molecule contrast agents were investigated using a 4 mM starting solution in water and diluted 1:1 four times. Relaxation rates of protein bound contrast agents were measured using 600 μM starting solution in 10 mM MOPS and was diluted 1:1 four times. Relaxation rates were determined using a 60 MHz (1.5 T) NMR analyzer (Bruker Minispec MQ60) at 37° C. using 500 μL in a 7.5 mm inner diameter NMR tubes. T1 relaxation times were determined using monoexponential curve fitting and an inversion recovery pulse sequence with four averages for each of 10 data points.
Gd(III) concentrations for all samples were measured by ICP-MS. Samples were prepared by dissolving 10 μL into 90 μL trace nitric acid, and diluted to 10 mL with ultrapure water (nitric acid was added to generate a 3% solution. Samples contained a multi-element internal standard consisting of 5 ppb each Bi, Ho, In, Li(6), Sc, Tb, and Y (Spex Certiprep, Metuchen, N.J., USA). ICP-MS was performed on a computer-controlled (Plasmalab software) Thermo X series II ICP-MS (Thermo Fisher Scientific, Waltham, Mass., USA) equipped with an ESI SC-2 autosampler (Omaha, Nebr., USA). Each sample was acquired using 1 survey run (10 sweeps) and 3 main (peak jumping) runs (100 sweeps).

[2] = 1.5 T, 37 degrees C.; cited from earlier work
HSA = HSA (Homo sapiens, UniProt P02768); conditions: 1.5 T, 37 degrees C.; cited from earlier work
HSA, sequence (P02768 25-609): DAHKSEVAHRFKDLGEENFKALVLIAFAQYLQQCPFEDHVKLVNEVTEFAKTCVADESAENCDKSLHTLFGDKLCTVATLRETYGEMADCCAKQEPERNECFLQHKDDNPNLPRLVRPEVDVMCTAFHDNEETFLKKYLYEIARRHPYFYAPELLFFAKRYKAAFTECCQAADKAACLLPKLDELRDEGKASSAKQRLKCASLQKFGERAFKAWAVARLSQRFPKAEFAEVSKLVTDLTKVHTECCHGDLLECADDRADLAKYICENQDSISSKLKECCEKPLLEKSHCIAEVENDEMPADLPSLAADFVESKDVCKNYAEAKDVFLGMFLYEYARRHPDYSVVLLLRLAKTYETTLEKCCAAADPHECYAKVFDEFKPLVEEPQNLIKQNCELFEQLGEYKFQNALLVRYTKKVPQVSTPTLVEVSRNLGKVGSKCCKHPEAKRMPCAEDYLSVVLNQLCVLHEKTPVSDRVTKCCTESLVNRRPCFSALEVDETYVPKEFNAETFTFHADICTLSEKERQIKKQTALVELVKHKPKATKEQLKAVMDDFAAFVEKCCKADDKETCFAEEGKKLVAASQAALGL

SMILES	r2 - F (transverse relaxivity, free) ([1]; 60 MHz)	r1 - F (longitudinal relaxivity, free) ([1]; 400 MHz)	r2 - F (transverse relaxivity, free) ([1]; 400 MHz)	r1 - PB (longitudinal relaxivity, protein-bound) (HaloTag protein; 60 MHz (1.5 T), 10 mM MOPS)	r2 - PB (transverse relaxivity, protein-bound) (HaloTag protein; 60 MHz)	r1 - PB (longitudinal relaxivity, protein-bound) (HaloTag protein; 400 MHz)	r2 - PB (transverse relaxivity, protein-bound) (HaloTag protein; 400 MHz)	relaxivity, unbound [2]	relaxivity when bound to HSA (HSA)
O=C([O-])CN1CCN(CCCC(=O)NCCOCCOCCCCCCCl)CCN(CC(=O)[O-])CCN(CC(=O)[O-])CC1.[Gd+3] [3CHTGd]	5.8 ± 0.1 mM⁻¹ s⁻¹	6.0 ± 0.2 mM⁻¹ s⁻¹	4.9 ± 0.2 mM⁻¹ s⁻¹	7.6 ± 0.7 mM⁻¹ s⁻¹	13.1 ± 0.9 mM⁻¹ s⁻¹	2.7 ± 0.1 mM⁻¹ s⁻¹	15.9 ± 0.1 mM⁻¹ s⁻¹	–	–
O=C([O-])CN1CCN(CCC(=O)NCCOCCOCCCCCCCl)CCN(CC(=O)[O-])CCN(CC(=O)[O-])CC1.[Gd+3] [2CHTGd]	3.9 ± 0.5 mM⁻¹ s⁻¹	3.3 ± 0.1 mM⁻¹ s⁻¹	4.1 ± 0.1 mM⁻¹ s⁻¹	22.0 mM⁻¹ s⁻¹ and 22.0 ± 2.2 mM⁻¹ s⁻¹	45.3 ± 5.5 mM⁻¹ s⁻¹	5.1 ± 0.7 mM⁻¹ s⁻¹	56 ± 8 mM⁻¹ s⁻¹	–	–
O=C([O-])CN1CCN(CC(=O)[O-])CCN(CC(=O)NCCOCCOCCCCCCCl)CCN(CC(=O)[O-])CC1.[Gd+3] [1CHTGd]	4.1 ± 0.2 mM⁻¹ s⁻¹	3.2 ± 0.1 mM⁻¹ s⁻¹	4.0 ± 0.1 mM⁻¹ s⁻¹	13.4 ± 1.3 mM⁻¹ s⁻¹	25.2 ± 2.6 mM⁻¹ s⁻¹	4.0 ± 0.2 mM⁻¹ s⁻¹	28 ± 2 mM⁻¹ s⁻¹	–	–
O=C([O-])CN1CCN(CCCCC(=O)NCCOCCOCCCCCCCl)CCN(CC(=O)[O-])CCN(CC(=O)[O-])CC1.[Gd+3] [4CHTGd]	6.5 ± 0.5 mM⁻¹ s⁻¹	5.6 ± 0.2 mM⁻¹ s⁻¹	6.9 ± 0.2 mM⁻¹ s⁻¹	8.6 ± 1.1 mM⁻¹ s⁻¹	15.9 ± 2.3 mM⁻¹ s⁻¹	3.3 ± 0.2 mM⁻¹ s⁻¹	19.6 ± 1.3 mM⁻¹ s⁻¹	–	–
O=C([O-])CN(CCN(CC(=O)[O-])C[C@H](COP(=O)([O-])OC1CCC(c2ccccc2)(c2ccccc2)CC1)N(CC(=O)[O-])CC(=O)[O-])CC(=O)[O-].[Gd+3].[H+].[H+].[H+] [MS-325]	–	–	–	–	–	–	–	5.5 mM⁻¹ s⁻¹	25 mM⁻¹ s⁻¹
